Assay results published in US20240018123A1, “COMPOUND FOR INHIBITING OR DISINTEGRATING ANDROGEN RECEPTOR, AND PHARMACEUTICAL USE THEREOF” (KOREA RESEARCH INSTITUTE OF CHEMICAL TECHNOLOGY, priority 2020, published 2024).
Like-named read-outs stand apart in the source and are kept apart here.

Tests used:
Androgen receptor (AR) = molecular target: T1, Androgen receptor (AR) (Homo sapiens, UniProt P10275, T878A); assay: Assessment of AR proteolytic activity (Western blotting of LNCap cell lysates); format: cell-based; settings: 24 hours of treatment, Western blotting quantified with Image J
T1 construct: 5.5×10^5 LNCap cells were injected into each well of a 6-well plate; endogenous in cells; host or cells: LNCaP
T1 sequence (P10275 1-920 T878A): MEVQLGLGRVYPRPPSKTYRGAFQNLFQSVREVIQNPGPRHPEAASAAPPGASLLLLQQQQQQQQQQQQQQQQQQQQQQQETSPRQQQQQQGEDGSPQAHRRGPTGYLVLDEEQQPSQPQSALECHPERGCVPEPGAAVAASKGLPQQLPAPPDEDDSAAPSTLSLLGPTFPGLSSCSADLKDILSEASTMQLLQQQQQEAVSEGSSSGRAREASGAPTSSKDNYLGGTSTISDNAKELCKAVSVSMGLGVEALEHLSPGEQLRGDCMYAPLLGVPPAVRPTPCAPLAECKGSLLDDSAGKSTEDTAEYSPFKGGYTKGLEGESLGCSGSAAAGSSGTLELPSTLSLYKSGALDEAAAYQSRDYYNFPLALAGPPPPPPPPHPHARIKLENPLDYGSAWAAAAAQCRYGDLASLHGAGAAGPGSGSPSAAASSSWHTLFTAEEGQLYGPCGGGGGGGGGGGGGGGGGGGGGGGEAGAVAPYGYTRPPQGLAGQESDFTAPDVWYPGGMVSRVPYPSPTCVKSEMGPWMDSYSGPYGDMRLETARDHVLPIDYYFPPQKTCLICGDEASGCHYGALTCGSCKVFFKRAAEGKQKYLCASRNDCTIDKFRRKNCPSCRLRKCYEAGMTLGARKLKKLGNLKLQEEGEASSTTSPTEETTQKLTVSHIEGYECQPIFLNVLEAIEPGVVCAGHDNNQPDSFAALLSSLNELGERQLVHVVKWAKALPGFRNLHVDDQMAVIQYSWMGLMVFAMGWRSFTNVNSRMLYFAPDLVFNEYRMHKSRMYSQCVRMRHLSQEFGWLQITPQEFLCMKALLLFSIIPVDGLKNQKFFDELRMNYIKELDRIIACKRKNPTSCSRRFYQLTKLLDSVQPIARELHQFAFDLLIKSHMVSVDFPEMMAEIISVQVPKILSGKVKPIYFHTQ
Method in brief: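 AR degradation read by Western blot densitometry on RIPA lysates (pH 7.5, protease inhibitor cocktail). Lysates came from LNCap cells, 5.5×10^5 per well, exposed to compound for 24 hours.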

LNCaP cells = assay: Cytotoxicity assessment (Cell-titer-glo cell viability), LNCaP
Experimental: In order to evaluate the androgen receptor (AR) cytotoxicity of the compounds according to the present invention, the following experiment was conducted. Specifically, 1.5×10^3 (LNCaP) or 4×10^3 (VCaP, 22RV1), respectively, of LNCaP, VCaP, and 22RV1 cells were injected into each well of a 96-well plate. The next day, each well was treated with the compound at a final concentration of 3 nM, 10 nM, 30 nM, 100 nM, 300 nM, 1 μM, 3 μM, and 10 μM. […] After 6 days of treatment, Cell-titer-glo (promega) was treated and reacted for 10 minutes, and cell viability was measured with a multimode plate reader (PerkinElmer, Inc.), and the change was quantified compared to when DMSO was treated.

VCaP cells [1] = test system: VCaP cells
VCaP cells [2] = assay: Cytotoxicity assessment (Cell-titer-glo cell viability), VCaP; settings: read-out: VCaP (CC50); VCaP cells, 6 days of treatment, Cell-titer-glo, vs DMSO
[3] = read-out: LNCAP (CC50), LNCaP cells, 6 days of treatment, Cell-titer-glo, vs DMSO

Degradation (1 μM treated in LNCaP, % AR remaining) (Androgen receptor (AR)) | Compound | CC50 (LNCaP cells; [3]) | CC50 (VCaP cells [2]) | also measured
 | CC1(C)[C@H](NC(=O)c2ccc(N3CCN(CC4CCN(C(=O)COc5ccc6nnn(C7CCC(=O)NC7=O)c(=O)c6c5)CC4)CC3)cc2)C(C)(C)[C@H]1Oc1ccc(C#N)c(Cl)c1 (stereo partly drawn) [Example 13, N-((1r,3r)-3-(3-chloro-4-cyanophenoxy)-2,2,4,4-tetramethylcyclobutyl)-4-(4-((1-(2-((3-(2,6-dioxopiperidin-3-yl)-4-oxo-3,4-dihydrobenzo[d][1,2,3]triazin-6-yl)oxy)acetyl)piperidin-4-yl)methyl)piperazin-1-yl)benzamide] |  |  | remaining activity at 1 µM (Androgen receptor (AR); read-out: Degradation (1 μM treated in LNCaP, % AR remaining)): 8.3%; CC50 (LNCaP cells; Homo sapiens, LNCaP, 144 h, read-out: LNCAP (CC50, μM)): 0.803 µM
23% | CC1(C)[C@H](NC(=O)c2ccc(N3CCN(C4CC5(CCN(C(=O)COc6ccc7nnn(C8CCC(=O)NC8=O)c(=O)c7c6)CC5)C4)CC3)cc2)C(C)(C)[C@H]1Oc1ccc(C#N)c(Cl)c1 (stereo partly drawn) [Example 18, N-((1r,3r)-3-(3-chloro-4-cyanophenoxy)-2,2,4,4-tetramethylcyclobutyl)-4-(4-(7-(2-((3-(2,6-dioxopiperidin-3-yl)-4-oxo-3,4-dihydrobenzo[d][1,2,3]triazin-6-yl)oxy)acetyl)-7-azaspiro[3.5]nonan-2-yl)piperazin-1-yl)benzamide] | 0.196 µM |  | 
21% | CC1(C)[C@H](NC(=O)c2ccc(N3CCN(C4CC5(CCN(C(=O)C6CN(c7ccc8nnn(C9CCC(=O)NC9=O)c(=O)c8c7)C6)CC5)C4)CC3)cc2)C(C)(C)[C@H]1Oc1ccc(C#N)c(Cl)c1 (stereo partly drawn) [Example 21, N-((1r,3r)-3-(3-chloro-4-cyanophenoxy)-2,2,4,4-tetramethylcyclobutyl)-4-(4-(7-(1-(3-(2,6-dioxopiperidin-3-yl)-4-oxo-3,4-dihydrobenzo[d][1,2,3]triazin-6-yl)azetidine-3-carbonyl)-7-azaspiro[3.5]nonan-2-yl)piperazin-1-yl)benzamide] | 0.312 µM |  | 
14% | CC1(C)C(NC(=O)c2ccc(C#CCC3CCN(CC4CCN(c5ccc6nnn(C7CCC(=O)NC7=O)c(=O)c6c5)CC4)CC3)cc2)C(C)(C)C1Oc1ccc(C#N)c(Cl)c1 (stereo not drawn) [Example 88, N-((1r,3r)-3-(3-chloro-4-cyanophenoxy)-2,2,4,4-tetramethylcyclobutyl)-4-(3-(1-((1-(3-(2,6-dioxopiperidin-3-yl)-4-oxo-3,4-dihydrobenzo[d][1,2,3]triazin-6-yl)piperidin-4-yl)methyl)piperidin-4-yl)prop-1-yn-1-yl)benzamide] |  |  | CC50 (VCaP cells [1]): 14.5 nM
5% | CC1(C)C(NC(=O)c2ccc(-n3cc(CC4CCN(C(=O)C5CN(c6ccc7nnn(C8CCC(=O)NC8=O)c(=O)c7c6)C5)CC4)nn3)cc2)C(C)(C)C1Oc1ccc(C#N)c(Cl)c1 (stereo not drawn) [Example 90, N-((1r,3r)-3-(3-chloro-4-cyanophenoxy)-2,2,4,4-tetramethylcyclobutyl)-4-(4-((1-(1-(3-(2,6-dioxopiperidin-3-yl)-4-oxo-3,4-dihydrobenzo[d][1,2,3]triazin-6-yl)azetidine-3-carbonyl)piperidin-4-yl)methyl)-1H-1,2,3-triazol-1-yl)benzamide] |  |  | CC50 (VCaP cells [1]): 19.6 nM
 | CC1(C)C(NC(=O)c2ccc(CCN3CC4CN(C(=O)C5CCN(c6ccc7nnn(C8CCC(=O)NC8=O)c(=O)c7c6)CC5)CC4C3)cc2)C(C)(C)C1Oc1ccc(C#N)c(Cl)c1 (stereo not drawn) [Example 93, N-((1r,3r)-3-(3-chloro-4-cyanophenoxy)-2,2,4,4-tetramethylcyclobutyl)-4-(2-(5-(1-(3-(2,6-dioxopiperidin-3-yl)-4-oxo-3,4-dihydrobenzo[d][1,2,3]triazin-6-yl)piperidine-4-carbonyl)hexahydropyrrolo[3,4-c]pyrrol-2(1H)-yl)ethyl)benzamide] | 0.0515 µM | 22.4 nM | 
 | CC1(C)C(NC(=O)c2ccc(CCN3CC4CN(C(=O)C5CN(c6ccc7nnn(C8CCC(=O)NC8=O)c(=O)c7c6)C5)CC4C3)cc2)C(C)(C)C1Oc1ccc(C#N)c(Cl)c1 (stereo not drawn) [Example 94, N-((1r,3r)-3-(3-chloro-4-cyanophenoxy)-2,2,4,4-tetramethylcyclobutyl)-4-(2-(5-(1-(3-(2,6-dioxopiperidin-3-yl)-4-oxo-3,4-dihydrobenzo[d][1,2,3]triazin-6-yl)azetidine-3-carbonyl)hexahydropyrrolo[3,4-c]pyrrol-2(1H)-yl)ethyl)benzamide] | 0.108 µM | 7.84 nM | 
 | CC1(C)C(NC(=O)c2ccc(C#CC3CCN(CC4CCN(C(=O)C5CCN(c6ccc7nnn(C8CCC(=O)NC8=O)c(=O)c7c6)CC5)CC4)CC3)cc2)C(C)(C)C1Oc1ccc(C#N)c(Cl)c1 (stereo not drawn) [Example 97, N-((1r,3r)-3-(3-chloro-4-cyanophenoxy)-2,2,4,4-tetramethylcyclobutyl)-4-((1-((1-(1-(3-(2,6-dioxopiperidin-3-yl)-4-oxo-3,4-dihydrobenzo[d][1,2,3]triazin-6-yl)piperidine-4-carbonyl)piperidin-4-yl)methyl)piperidin-4-yl)ethynyl)benzamide] | 0.0767 µM | 2.08 nM | 
 | CC1(C)C(NC(=O)c2ccc(-n3cc(C4CCN(C(=O)C5CCN(c6ccc7nnn(C8CCC(=O)NC8=O)c(=O)c7c6)CC5)CC4)nn3)cc2)C(C)(C)C1Oc1ccc(C#N)c(Cl)c1 (stereo not drawn) [Example 102, N-((1r,3r)-3-(3-chloro-4-cyanophenoxy)-2,2,4,4-tetramethylcyclobutyl)-4-(4-(1-(1-(3-(2,6-dioxopiperidin-3-yl)-4-oxo-3,4-dihydrobenzo[d][1,2,3]triazin-6-yl)piperidine-4-carbonyl)piperidin-4-yl)-1H-1,2,3-triazol-1-yl)benzamide] | 0.0158 µM | 5.88 nM | 

Compound | Degradation (1 μM treated in LNCaP, % AR remaining) (Androgen receptor (AR)) | CC50 (LNCaP cells; [3]) | CC50 (VCaP cells [2]) | also measured
CC1(C)[C@H](NC(=O)c2ccc(OCCOCCOCCOCCOCCOCCNc3cccc4nnn(C5CCC(=O)NC5=O)c(=O)c34)cc2)C(C)(C)[C@H]1Oc1ccc(C#N)c(Cl)c1 (stereo partly drawn) [Example 1, N-((1r,3r)-3-(3-chloro-4-cyanophenoxy)-2,2,4,4-tetramethylcyclobutyl)-4-((17-((3-(2,6-dioxopiperidin-3-yl)-4-oxo-3,4-dihydrobenzo[d][1,2,3]triazin-5-yl)amino)-3,6,9,12,15-pentaoxaheptadecyl)oxy)benzamide] | 72% | 5.69 µM |  | 
CC1(C)C(NC(=O)c2ccc(OCCOCCOCCOCCOCCOCCCCNC(=O)C3CCN(c4ccc5nnn(C6CCC(=O)NC6=O)c(=O)c5c4)CC3)cc2)C(C)(C)C1Oc1ccc(C#N)c(Cl)c1 (stereo not drawn) [Example 15, N-(1-(4-(((1r,3r)-3-(3-chloro-4-cyanophenoxy)-2,2,4,4-tetramethylcyclobutyl)carbamoyl)phenoxy)-3,6,9,12,15-pentaoxanonadecan-19-yl)-1-(3-(2,6-dioxopiperidin-3-yl)-4-oxo-3,4-dihydrobenzo[d][1,2,3]triazin-6-yl)piperidine-4-carboxamide] | 13.6% | 1.31 µM |  | 
CC1(C)C(NC(=O)c2ccc(OCCOCCOCCOCCOCCOCCCCNC(=O)C3CN(c4ccc5nnn(C6CCC(=O)NC6=O)c(=O)c5c4)C3)cc2)C(C)(C)C1Oc1ccc(C#N)c(Cl)c1 (stereo not drawn) [Example 16, N-(1-(4-(((1r,3r)-3-(3-chloro-4-cyanophenoxy)-2,2,4,4-tetramethylcyclobutyl)carbamoyl)phenoxy)-3,6,9,12,15-pentaoxanonadecan-19-yl)-1-(3-(2,6-dioxopiperidin-3-yl)-4-oxo-3,4-dihydrobenzo[d][1,2,3]triazin-6-yl)azetidine-3-carboxamide] | 12.6% | 1.95 µM |  | 
